Results reported in US5852011A, “Benzimidazole derivatives” (Mitsui Chemicals, Inc., priority 1994, dated 1998).
Structures can show the parent of a compound that is named as a salt.

tested on: mouse B16 melanoma cells; test: In vitro inhibition of proliferation of tumored cells, mouse B16 melanoma (Test 2); format: cell-based; conditions: 3 days in 5% CO2 at 37° C., 96-well plate
Experimental: A description will next be made of antitumor activities of these compounds. Their antitumor activities were determined by measuring their in vitro inhibition of proliferation of tumored cells. Namely, mouse B16 melanoma cells were spread over a 96-well culture plate. One day later, each drug was applied. The melanoma cells were then incubated for 3 days in 5% CO2 at 37° C. Following the method reported in Cancer Res., 48, 589-601(1988), the concentration of the drug required to induce 50% inhibition on the proliferation was determined. As a comparative example, the results obtained from the application of distamycin are also shown.

Going from Cn1cc(NC(=O)Cc2ccc(N(CCCl)CCCl)cc2)cc1-c1nc2cc(C(=O)NCCC(=N)N)ccc2[nH]1 [Compound 2, 1H-2-[4-[2-[4-[N,N-Bis(2-chloroethyl)amino]phenyl]acetylamino]-1-methylpyrrol-2-yl]benzimidazole-5-[N-(2-amidinoethyl)]carboxamide hydrochloride] to Cn1cc(NC(=O)CNC(=N)N)cc1-c1nc2cc(C(=O)NCCCc3ccc(N(CCCl)CCCl)cc3)ccc2[nH]1 [Compound 1004, 1H-2-[4-(2-Guanidinoacetylamino)-1-methylpyrrol-2-yl]benzimidazole-5-[N-[3-[4-[N,N-bis(2-chloroethyl)amino]phenyl]propyl]]carboxamide hydrochloride], the “50% Inhibition” value falls from 0.25 µg/mL to 0.047 µg/mL (5.3-fold).

Going from N=C(N)CCNC(=O)c1ccc2[nH]c(-c3csc(NC(=O)CCCc4ccc(N(CCCl)CCCl)cc4)c3)nc2c1 [Compound 424, 1H-2-[2-[4-[4-[N,N-Bis(2-chloroethyl)amino]phenyl]butyrylamino]thiophen-4-yl]benzimidazole-5-[N-(2-amidinoethyl)]carboxamide hydrochloride] to N=C(N)NCC(=O)Nc1cc(-c2nc3cc(C(=O)Nc4ccc(N(CCCl)CCCl)cc4)ccc3[nH]2)cs1 [Compound 1617, 1H-2-[5-(Guanidinoacetyl)aminothiophen-3-yl]benzimidazole-5-[N-[4-[N,N-bis(2-chloroethyl)amino]phenyl]]carboxamide dihydrochloride], the “50% Inhibition” value rises from 0.08 µg/mL to 0.12 µg/mL (1.5-fold).

First: CN(C)CCNC(=O)c1cc(N(CCCl)CCCl)ccc1NC(=O)c1ccc2[nH]c(-c3cc(NC(=O)CNC(=N)N)cn3C)nc2c1 [Compound 1042, 1H-2-[1-Methyl-4-(guanidinoacetylamino)pyrrol-2-yl]benzimidazole-5-[N-[2-[N-[(N,N-dimethylamino)ethyl]carboxamido]-4-[N,N-bis(2-chloroethyl)amino]phenyl]]carboxamide dihydrochloride]
Second: Cn1cc(NC(=O)CNC(=N)N)cc1-c1nc2cc(C(=O)Nc3cccc(N(CCCl)CCCl)c3)ccc2[nH]1 [Compound 1047, 1H-2-[1-Methyl-4-(guanidinoacetylamino)pyrrol-2-yl]benzimidazole-5-[N-[3-[N,N-bis(2-chloroethyl)amino]phenyl]]carboxamide dihydrochloride]
The “50% Inhibition” value of the first is 37-fold higher: 3.49 µg/mL for the first, 0.0946 µg/mL for the second.

Going from Cn1cc(NC(=O)CC[S+](C)C)cc1-c1nc2cc(C(=O)Nc3ccc(N(CCCl)CCCl)c(Cl)c3)ccc2[nH]1 [Compound 1072, 2-[N-[1-Methyl-2-[5-[N-[3-chloro-4-[N,N-bis(2-chloroethyl)amino]phenyl]]carbamoyl]-1H-benzimidazol-2-yl]pyrrol-4-yl]carbamoylethyl-dimethylsulfonium chloride] to Cn1cc(NC(=O)CC[S+](C)C)cc1-c1nc2cc(C(=O)Nc3ccc(N(CCCl)CCCl)c(C(F)(F)F)c3)ccc2[nH]1 [Compound 1077, 2-[N-[1-Methyl-2-[5-[N-[3-trifluoromethyl-4-[N,N-bis(2-chloroethyl)amino]phenyl]]carbamoyl]-1H-benzimidazol-2-yl]pyrrol-4-yl]carbamoylethyl-dimethylsulfonium chloride], the “50% Inhibition” value falls from 0.51 µg/mL to 0.29 µg/mL (1.8-fold).

Going from Cc1cc(NC(=O)c2ccc3[nH]c(-c4cc(NC(=O)CCCN(C)C)cn4C)nc3c2)ccc1N(CCCl)CCCl [Compound 1260, 1H-2-[1-Methyl-4-[4-(N,N-dimethylamino)butyrylamino]pyrrol-2-yl]benzimidazole-5-[N-[3-methyl-4-[N,N-bis(2-chloroethyl)amino]phenyl]]carboxamide dihydrochloride] to CSCCC(=O)Nc1cc(-c2nc3cc(C(=O)Nc4ccc(N(CCCl)CCCl)c(C)c4)ccc3[nH]2)n(C)c1 [Compound 1524, 1H-2-[1-Methyl-4-[3-(methylthio)propionylamino]pyrrol-2-yl]benzimidazole-5-[N-[3-methyl-4-[N,N-bis(2-chloroethyl)amino]phenyl]]carboxamide], the “50% Inhibition” value falls from 3.1 µg/mL to 0.6 µg/mL (5.2-fold).

Going from Cn1cc(NC(=O)c2ccc[nH]2)cc1-c1nc2cc(C(=O)Nc3ccc(N(CCCl)CCCl)cc3)ccc2[nH]1 [Compound 1480, 1H-2-[1-Methyl-4-(2-pyrrolcarboxamido)pyrrol-2-yl]benzimidazole-5-[N-[4-[N,N-bis(2-chloroethyl)amino]phenyl]]carboxamide hydrochloride] to Cn1cc(NC(=O)c2ncc[nH]2)cc1-c1nc2cc(C(=O)Nc3ccc(N(CCCl)CCCl)cc3)ccc2[nH]1 [Compound 1590, 1H-2-[1-Methyl-4-[2-imidazolylcarboxamido)-pyrrol-2-yl]benzimidazole-5-[N-[4-[N,N-bis(2-chloroethyl)amino]phenyl]]carboxamide], the “50% Inhibition” value rises from 0.16 µg/mL to 0.53 µg/mL (3.3-fold).

First: Cn1cc(NC(=O)CCCN)cc1-c1nc2cc(C(=O)Nc3ccc(N(CCCl)CCCl)cc3)ccc2[nH]1 [Compound 1488, 1H-2-[4-(4-aminobuturylamino)-1-methylpyrrol-2-yl]benzimidazole-5-[N-[4-[N,N-bis(2-chloroethyl)amino]phenyl]]carboxamide]
Second: CSCCC(=O)Nc1cc(-c2nc3cc(C(=O)Nc4ccc(N(CCCl)CCCl)cc4)ccc3[nH]2)n(C)c1 [Compound 1520, 1H-2-[1-Methyl-4-[3-(methylthio)propionylamino]pyrrol-2-yl]benzimidazole-5-[N-[4-[N,N-bis(2-chloroethyl)amino]phenyl]]carboxamide]
The “50% Inhibition” value of the first is 8.6-fold higher: 2.85 µg/mL for the first, 0.33 µg/mL for the second.

Compared with CSCCC(=O)Nc1cc(-c2nc3cc(C(=O)Nc4ccc(N(CCCl)CCCl)c(F)c4)ccc3[nH]2)n(C)c1 [Compound 1528, 1H-2-[1-Methyl-4-[3-(methylthio)propionylamino]pyrrol-2-yl]benzimidazole-5-[N-[3-fluoro-4-[N,N-bis(2-chloroethyl)amino]phenyl]]carboxamide], Cn1cc(NC(=O)CCn2ccnc2)cc1-c1nc2cc(C(=O)Nc3ccc(N(CCCl)CCCl)cc3)ccc2[nH]1 [Compound 1589, 1H-2-[1-Methyl-4-[[3-(imidazol-1-yl)propionyl]amino]pyrrol-2-yl]benzimidazole-5-[N-[4-[N,N-bis(2-chloroethyl)]amino]phenyl]carboxamide] is 1.9-fold higher in “50% Inhibition” value: 0.22 µg/mL for the first, 0.41 µg/mL for the second.

Compared with Cn1cc(NC(=O)N2CCOCC2)cc1-c1nc2cc(C(=O)Nc3ccc(N(CCCl)CCCl)cc3)ccc2[nH]1 [Compound 1536, 1H-2-[1-Methyl-4-(4-morpholinecarbonyl)aminopyrrol-2-yl]benzimidazole-5-[N-[4-[N,N-bis(2-chloroethyl)amino]phenyl]]carboxamide], Cn1cc(NC(=O)CN2CCN(Cc3ccccc3)CC2)cc1-c1nc2cc(C(=O)Nc3ccc(N(CCCl)CCCl)cc3)ccc2[nH]1 [Compound 1585, 1H-2-[1-Methyl-4-[(4-benzylpiperazinyl)acetylamino]pyrrol-2-yl]benzimidazole-5-[N-[4-[N,N-bis(2-chloroethyl)amino]phenyl]]carboxamide] is 5.3-fold lower in “50% Inhibition” value: 0.53 µg/mL for the first, 0.1 µg/mL for the second.

Compared with Cn1cc(NC(=O)CNC(=N)N)cc1-c1nc2cc(C(=O)NCCCC(=O)Nc3ccc(N(CCCl)CCCl)cc3)ccc2[nH]1 [Compound 1592, 1H-2-[4-(Guanidinoacetyl)amino-1-methylpyrrol-2-yl]benzimidazole-5-[N-[3-[N-[4-[N,N-bis(2-chloroethyl)amino]phenyl]carboxamido]propyl]]carboxamide hydrochloride], CCN(CCCl)c1ccc(NC(=O)c2ccc3[nH]c(-c4cc(NC(=O)c5ccc(N(CC)CCCl)cc5)cn4C)nc3c2)cc1.Cl [Compound 2089, 1H-2-[1-Methyl-4-[4-[N-ethyl,N-(2-chloroethyl)amino]benzoylamino]pyrrol-2-yl]benzimidazole-5-[N-[4-[N-ethyl,N-(2-chloroethyl)amino]phenyl]]carboxamidehydrochloride] is 110-fold lower in “50% Inhibition” value: 0.61 µg/mL for the first, 0.0057 µg/mL for the second.

same assay, conditions: Mus musculus, B16, 72 h, read-out: 50% Inhibition

Compared with CCN(CCCl)c1ccc(NC(=O)c2ccc3[nH]c(-c4cc(NC(=O)CNC(=N)N)cn4C)nc3c2)cc1 [Compound 1048, 1H-2-[1-Methyl-4-(2-guanidinoacetylamino)pyrrol-2-yl]benzimidazol-5-[N-[4-[N-ethyl,N-(2-chloroethyl)amino]phenyl]]carboxamide dihydrochloride], CCN(CCCl)c1cccc(NC(=O)c2ccc3[nH]c(-c4cc(NC(=O)CNC(=N)N)cn4C)nc3c2)c1 [Compound 1049, 1H-2-[1-Methyl-4-(guanidinoacetylamino)pyrrol-2-yl]benzimidazol-5-[N-[3-[N-ethyl,N-(2-chloroethyl)amino]phenyl]]carboxamide hydrochloride] is 20-fold lower in IC50: 5.58 µg/mL for the first, 0.274 µg/mL for the second.

same assay, conditions: Mus musculus, B16, 72 h; 3 days in 5% CO2 at 37° C., 96-well plate; read-out: 50% Inhibition

N=C(N)CCNC(=O)c1ccc2[nH]c(-c3csc(NC(=O)c4ccccc4)c3)nc2c1 [Compound 438, 1H-2-(2-Benzoylaminothiophen-4-yl)benzimidazole-5-[N-(2-amidinoethyl)]carboxamide hydrochloride] showed an IC50 of 42.8 µg/mL.

tested on: P388 leukemia cells; test: In vivo antitumor activity, P388 leukemia intraperitoneally transplanted to female CDF1 mice (Test 3); design: species or system mouse; ILS: unit not given here; conditions: 1 mg/kg, intraperitoneal, one, five and nine days after transplantation
Experimental: In vivo antitumor activities of these compounds were also studied. P388 leukemia cells (10^6 cells/mouse) were intraperitoneally transplanted to female CDF1 mice. One, five and nine days later, each compound was intraperitoneally administered (at 1, 3 or 10 mg/kg) to the mice. As a blank test, 5% glucose was intraperitoneally administered at 10 ml/kg to mice. Based on the group of the mice in the blank test as a control group, the effects of the individual drugs are shown in terms of ILS. The term "ILS" is represented by the following formula: [formula]
When test animals survived 8 weeks after the administration, the number of those survived was recorded without calculation of ILS.

Work on Cn1cc(NC(=O)Cc2ccc(N(CCCl)CCCl)cc2)cc1-c1nc2cc(C(=O)NCCC(=N)N)ccc2[nH]1 [Compound 2, 1H-2-[4-[2-[4-[N,N-Bis(2-chloroethyl)amino]phenyl]acetylamino]-1-methylpyrrol-2-yl]benzimidazole-5-[N-(2-amidinoethyl)]carboxamide hydrochloride] yielded an ILS of 59.

same assay, conditions: concentration 3 (in parentheses), intraperitoneal, one, five and nine days after transplantation

With Cn1cc(NC(=O)Cc2ccc(N(CCCl)CCCl)cc2)cc1-c1nc2cc(C(=O)NCCC(=N)N)ccc2[nH]1 [Compound 2, 1H-2-[4-[2-[4-[N,N-Bis(2-chloroethyl)amino]phenyl]acetylamino]-1-methylpyrrol-2-yl]benzimidazole-5-[N-(2-amidinoethyl)]carboxamide hydrochloride] the “Survived After 8 weeks/Tested Animals” value was 2/5.
